Assay results published in ChEMBL document CHEMBL4007392, “Modulating Mineralocorticoid Receptor with Non-steroidal Antagonists. New Opportunities for the Development of Potent and Selective Ligands without Off-Target Side Effects” (J Med Chem, 2017).

Experiments:
[1] = target: Mineralocorticoid receptor (Homo sapiens, UniProt P08235, C808S); assay: Binding affinity to N-terminal 6His-GST-tagged human MR LBD (727 to 984 residues) harboring C808S mutation expressed in Escherichia coli BL21DE3/corticosterone complex by AlphaScreen assay
Chain of Mineralocorticoid receptor (Homo sapiens, UniProt P08235, C808S) (P08235 whole entry C808S, the tested form may be a part): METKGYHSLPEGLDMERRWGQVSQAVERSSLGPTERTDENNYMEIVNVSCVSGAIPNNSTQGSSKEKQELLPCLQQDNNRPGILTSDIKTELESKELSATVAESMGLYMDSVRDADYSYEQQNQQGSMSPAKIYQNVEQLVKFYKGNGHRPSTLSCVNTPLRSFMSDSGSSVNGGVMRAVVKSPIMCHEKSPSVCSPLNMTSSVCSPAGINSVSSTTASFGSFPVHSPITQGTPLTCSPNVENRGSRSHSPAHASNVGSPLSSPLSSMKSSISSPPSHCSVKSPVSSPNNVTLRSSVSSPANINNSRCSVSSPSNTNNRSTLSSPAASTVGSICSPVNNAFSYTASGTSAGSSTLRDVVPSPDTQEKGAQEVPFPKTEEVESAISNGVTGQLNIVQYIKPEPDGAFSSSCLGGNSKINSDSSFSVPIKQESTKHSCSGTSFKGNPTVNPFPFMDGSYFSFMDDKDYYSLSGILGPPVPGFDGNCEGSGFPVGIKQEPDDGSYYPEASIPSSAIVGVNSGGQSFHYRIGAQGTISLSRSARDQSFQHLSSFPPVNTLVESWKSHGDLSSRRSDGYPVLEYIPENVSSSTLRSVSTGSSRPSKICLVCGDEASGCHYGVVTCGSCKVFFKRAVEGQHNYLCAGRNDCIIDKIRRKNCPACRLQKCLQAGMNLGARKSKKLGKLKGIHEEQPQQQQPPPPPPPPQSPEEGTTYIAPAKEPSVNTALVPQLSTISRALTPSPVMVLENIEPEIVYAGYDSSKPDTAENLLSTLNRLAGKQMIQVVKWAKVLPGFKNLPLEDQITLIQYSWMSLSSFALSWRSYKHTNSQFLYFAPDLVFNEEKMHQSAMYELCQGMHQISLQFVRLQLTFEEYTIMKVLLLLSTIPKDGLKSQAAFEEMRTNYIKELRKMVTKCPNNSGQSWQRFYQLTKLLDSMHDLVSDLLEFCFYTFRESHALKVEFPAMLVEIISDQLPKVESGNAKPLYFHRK

[2] = target: T1, Mineralocorticoid receptor (Rattus norvegicus, UniProt P22199); assay: Displacement of [3H]-Aldosterone from MR in Sprague-Dawley rat kidney cytosolic fraction measured after overnight incubation by liquid scintillation counting method
T1 sequence (P22199 whole entry): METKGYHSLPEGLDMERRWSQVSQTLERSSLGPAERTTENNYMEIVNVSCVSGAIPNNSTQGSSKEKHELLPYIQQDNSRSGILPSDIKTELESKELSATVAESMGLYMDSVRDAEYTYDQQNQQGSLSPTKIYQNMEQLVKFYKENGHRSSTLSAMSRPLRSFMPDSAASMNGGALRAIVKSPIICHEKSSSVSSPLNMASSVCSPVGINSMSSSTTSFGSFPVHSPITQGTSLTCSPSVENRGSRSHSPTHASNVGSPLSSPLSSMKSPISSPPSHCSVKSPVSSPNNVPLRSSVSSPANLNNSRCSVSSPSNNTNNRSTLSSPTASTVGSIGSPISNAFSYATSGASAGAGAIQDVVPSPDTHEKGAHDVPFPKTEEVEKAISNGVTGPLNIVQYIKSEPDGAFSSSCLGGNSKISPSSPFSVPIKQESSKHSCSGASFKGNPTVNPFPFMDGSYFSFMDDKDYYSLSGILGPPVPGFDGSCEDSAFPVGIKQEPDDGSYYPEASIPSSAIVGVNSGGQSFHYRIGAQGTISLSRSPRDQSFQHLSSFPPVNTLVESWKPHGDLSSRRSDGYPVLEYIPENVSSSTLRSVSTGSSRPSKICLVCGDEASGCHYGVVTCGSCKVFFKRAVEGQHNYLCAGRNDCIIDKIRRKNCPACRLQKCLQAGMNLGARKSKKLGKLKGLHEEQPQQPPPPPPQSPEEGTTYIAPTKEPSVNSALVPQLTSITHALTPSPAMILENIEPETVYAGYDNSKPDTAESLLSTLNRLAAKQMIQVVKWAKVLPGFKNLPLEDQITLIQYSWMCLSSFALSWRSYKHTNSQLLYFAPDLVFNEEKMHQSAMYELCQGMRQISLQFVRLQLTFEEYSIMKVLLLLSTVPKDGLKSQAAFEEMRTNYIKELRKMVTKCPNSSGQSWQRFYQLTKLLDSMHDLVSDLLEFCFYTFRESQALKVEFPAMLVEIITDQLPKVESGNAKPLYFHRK

Androgen receptor = target: T2, Androgen receptor (Homo sapiens, UniProt P10275); assay: Antagonist activity at GAL4-fused human AR LBD (667 to 919 residues) expressed in CHO-K1 cells assessed as inhibition of dihydrotestosterone-induced transactivation activity after 5 to 6 hrs by luciferase reporter gene assay; type: cell-based
T2 sequence (P10275 whole entry): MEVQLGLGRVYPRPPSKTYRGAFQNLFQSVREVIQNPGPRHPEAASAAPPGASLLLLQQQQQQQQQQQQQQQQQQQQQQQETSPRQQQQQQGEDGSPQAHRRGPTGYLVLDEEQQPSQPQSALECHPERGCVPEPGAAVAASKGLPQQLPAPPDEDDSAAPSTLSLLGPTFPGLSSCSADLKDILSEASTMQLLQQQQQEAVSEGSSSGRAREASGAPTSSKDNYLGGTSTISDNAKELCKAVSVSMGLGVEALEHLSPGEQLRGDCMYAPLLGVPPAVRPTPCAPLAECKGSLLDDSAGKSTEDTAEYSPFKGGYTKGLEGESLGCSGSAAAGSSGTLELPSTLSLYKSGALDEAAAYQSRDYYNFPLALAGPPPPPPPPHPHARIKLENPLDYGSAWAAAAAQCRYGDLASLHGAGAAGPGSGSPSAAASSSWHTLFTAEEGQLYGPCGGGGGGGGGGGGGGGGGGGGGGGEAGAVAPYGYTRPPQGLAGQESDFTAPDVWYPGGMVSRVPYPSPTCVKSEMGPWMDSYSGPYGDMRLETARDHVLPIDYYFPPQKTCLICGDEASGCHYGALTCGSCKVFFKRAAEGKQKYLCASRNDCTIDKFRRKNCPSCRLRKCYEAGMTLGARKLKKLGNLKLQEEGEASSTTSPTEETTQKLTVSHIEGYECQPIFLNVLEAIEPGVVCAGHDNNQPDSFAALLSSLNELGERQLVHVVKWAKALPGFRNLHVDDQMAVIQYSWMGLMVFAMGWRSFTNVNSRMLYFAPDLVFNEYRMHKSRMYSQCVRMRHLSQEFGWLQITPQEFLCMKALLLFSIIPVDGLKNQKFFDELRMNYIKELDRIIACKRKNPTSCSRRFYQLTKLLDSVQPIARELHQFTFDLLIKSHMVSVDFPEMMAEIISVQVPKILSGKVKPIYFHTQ

Progesterone receptor = target: T3, Progesterone receptor (Homo sapiens, UniProt P06401); assay: Antagonist activity at GAL4-fused human PR LBD (680 to 933 residues) expressed in CHO-K1 cells assessed as inhibition of progesterone-induced transactivation activity after 5 to 6 hrs by luciferase reporter gene assay; type: cell-based
T3 sequence (P06401 whole entry): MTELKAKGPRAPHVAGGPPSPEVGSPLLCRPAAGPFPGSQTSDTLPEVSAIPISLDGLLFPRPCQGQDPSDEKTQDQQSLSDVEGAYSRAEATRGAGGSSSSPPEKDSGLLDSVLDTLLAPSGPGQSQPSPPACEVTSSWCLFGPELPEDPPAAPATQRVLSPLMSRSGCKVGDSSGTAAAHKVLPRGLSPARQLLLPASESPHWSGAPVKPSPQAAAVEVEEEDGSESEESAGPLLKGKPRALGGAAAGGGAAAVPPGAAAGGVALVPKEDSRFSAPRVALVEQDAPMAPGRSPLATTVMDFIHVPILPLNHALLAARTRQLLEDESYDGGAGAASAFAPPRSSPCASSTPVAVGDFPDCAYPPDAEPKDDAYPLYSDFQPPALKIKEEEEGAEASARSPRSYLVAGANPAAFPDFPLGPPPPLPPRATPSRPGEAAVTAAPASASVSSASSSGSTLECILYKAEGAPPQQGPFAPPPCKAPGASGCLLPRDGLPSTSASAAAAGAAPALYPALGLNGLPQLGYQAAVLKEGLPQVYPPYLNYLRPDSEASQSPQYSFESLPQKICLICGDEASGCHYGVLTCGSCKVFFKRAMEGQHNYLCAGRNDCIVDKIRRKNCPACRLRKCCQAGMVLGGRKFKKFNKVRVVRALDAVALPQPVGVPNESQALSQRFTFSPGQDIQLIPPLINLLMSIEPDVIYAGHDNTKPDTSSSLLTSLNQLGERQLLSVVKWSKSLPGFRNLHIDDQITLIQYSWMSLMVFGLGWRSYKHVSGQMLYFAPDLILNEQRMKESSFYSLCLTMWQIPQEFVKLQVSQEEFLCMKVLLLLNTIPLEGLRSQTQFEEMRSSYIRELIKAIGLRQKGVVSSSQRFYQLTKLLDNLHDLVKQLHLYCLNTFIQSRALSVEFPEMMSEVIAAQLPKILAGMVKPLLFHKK

[3] = target: T4, Mineralocorticoid receptor (Homo sapiens, UniProt P08235); assay: Antagonist activity at Gal4-fused human MR LBD (734 to 985 residues) expressed in CHO-K1 cells after 5 to 6 hrs by luciferase reporter gene assay; type: cell-based
T4 sequence (P08235 whole entry): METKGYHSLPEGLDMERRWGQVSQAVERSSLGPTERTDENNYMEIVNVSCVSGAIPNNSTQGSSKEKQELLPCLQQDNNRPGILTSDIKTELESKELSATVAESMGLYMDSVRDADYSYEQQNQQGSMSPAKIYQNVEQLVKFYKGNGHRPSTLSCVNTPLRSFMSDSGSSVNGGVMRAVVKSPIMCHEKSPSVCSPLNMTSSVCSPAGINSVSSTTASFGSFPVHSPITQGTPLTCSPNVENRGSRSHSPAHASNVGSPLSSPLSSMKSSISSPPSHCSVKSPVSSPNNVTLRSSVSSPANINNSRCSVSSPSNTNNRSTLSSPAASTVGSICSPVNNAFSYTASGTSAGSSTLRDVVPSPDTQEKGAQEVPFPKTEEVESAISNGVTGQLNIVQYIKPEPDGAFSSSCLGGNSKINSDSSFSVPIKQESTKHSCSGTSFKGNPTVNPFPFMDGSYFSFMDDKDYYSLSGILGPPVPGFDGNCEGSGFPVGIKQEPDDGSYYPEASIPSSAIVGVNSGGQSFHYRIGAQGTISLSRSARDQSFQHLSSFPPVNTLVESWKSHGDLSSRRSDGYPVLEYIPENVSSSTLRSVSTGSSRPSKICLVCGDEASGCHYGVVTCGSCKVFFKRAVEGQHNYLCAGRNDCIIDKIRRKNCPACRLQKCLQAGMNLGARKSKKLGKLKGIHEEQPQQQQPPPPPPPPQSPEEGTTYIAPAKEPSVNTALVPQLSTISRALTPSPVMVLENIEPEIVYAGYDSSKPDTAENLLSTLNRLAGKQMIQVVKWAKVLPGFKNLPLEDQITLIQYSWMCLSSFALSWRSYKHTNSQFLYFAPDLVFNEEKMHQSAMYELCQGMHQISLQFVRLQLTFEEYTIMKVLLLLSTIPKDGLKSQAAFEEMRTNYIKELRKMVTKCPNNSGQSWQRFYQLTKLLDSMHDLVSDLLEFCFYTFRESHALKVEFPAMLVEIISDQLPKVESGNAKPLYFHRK

Glucocorticoid receptor = target: T5, Glucocorticoid receptor (Homo sapiens, UniProt P04150); assay: Antagonist activity at GAL4-fused human GR LBD (443 to 777 residues) expressed in CHO-K1 cells assessed as inhibition of dexamethasone-induced transactivation activity after 5 to 6 hrs by luciferase reporter gene assay; type: cell-based
T5 sequence (P04150 whole entry): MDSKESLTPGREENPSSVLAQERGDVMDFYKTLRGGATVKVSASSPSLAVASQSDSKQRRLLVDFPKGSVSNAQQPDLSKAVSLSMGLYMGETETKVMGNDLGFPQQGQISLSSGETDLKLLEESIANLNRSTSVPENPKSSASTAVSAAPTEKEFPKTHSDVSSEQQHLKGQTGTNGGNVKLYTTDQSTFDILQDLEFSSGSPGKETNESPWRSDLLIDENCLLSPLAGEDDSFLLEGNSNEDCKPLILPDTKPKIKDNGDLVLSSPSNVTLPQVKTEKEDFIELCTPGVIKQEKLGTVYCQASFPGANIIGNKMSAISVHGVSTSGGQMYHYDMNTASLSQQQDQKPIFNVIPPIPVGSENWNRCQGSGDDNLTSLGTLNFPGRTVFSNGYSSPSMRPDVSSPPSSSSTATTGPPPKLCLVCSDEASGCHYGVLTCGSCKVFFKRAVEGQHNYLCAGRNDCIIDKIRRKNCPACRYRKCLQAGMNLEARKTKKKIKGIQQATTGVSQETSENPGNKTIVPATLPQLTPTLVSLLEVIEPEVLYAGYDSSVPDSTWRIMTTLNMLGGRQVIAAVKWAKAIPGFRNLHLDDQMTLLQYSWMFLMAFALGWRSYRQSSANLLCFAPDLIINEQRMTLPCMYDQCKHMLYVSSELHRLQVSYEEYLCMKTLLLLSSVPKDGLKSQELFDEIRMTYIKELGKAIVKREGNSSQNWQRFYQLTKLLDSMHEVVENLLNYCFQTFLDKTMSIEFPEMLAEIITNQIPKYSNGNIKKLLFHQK

[4] = target: T1, Mineralocorticoid receptor; assay: Displacement of [3H]-Aldosterone from MR in rat renal soluble fraction measured after 18 hrs in presence of glucocorticoid receptor antagonist RU-486 by liquid scintillation counting method

## CC(C)C[C@H](NC(=O)[C@H](CC(C)C)NC(=O)[C@H](CCC(=O)O)NC(=O)[C@H](CO)NC(=O)[C@H](CS)NC(=O)[C@@H]1CCCN1C(=O)[C@H](CCCNC(=N)N)NC(=O)[C@@H](N)CCCNC(=N)N)C(=O)N[C@@H](CCCCN)C(=O)N[C@@H](Cc1ccc(O)cc1)C(=O)N[C@@H](CC(C)C)C(=O)N[C@H](C(=O)N[C@H](C(=O)N[C@@H](CC(N)=O)C(=O)N[C@@H](CC(=O)O)C(=O)O)[C@H](C)O)[C@H](C)O
[1]
  IC50: 1100 nM

## H-KENNALLRYLLDRDD-OH
[1]
  IC50: 1400 nM

## CC1(C)N=C(c2ccc(Cl)cc2)c2ccc(NS(C)(=O)=O)cc2O1
[2]
  IC50: < 500 nM

## CCOc1ncc(C)c2c1[C@H](c1ccc(C#N)cc1OC)C(C#N)=C(C)N2
Androgen receptor
  IC50: 2400 nM
Progesterone receptor
  IC50: 4200 nM
[3]
  IC50: 26 nM
Glucocorticoid receptor
  IC50: 5800 nM

## COc1cc(NC(=O)c2ccc(-c3ccccc3OC(F)(F)F)c(CCN(C)C3CC3)c2)ccc1S(N)(=O)=O
[4]
  IC50: 22 nM

## CCOc1nccc2c1[C@H](c1ccc(C#N)cc1OC)C(C#N)=C(C)N2
Androgen receptor
  IC50: 2800 nM
Progesterone receptor
  IC50: 5400 nM
[3]
  IC50: 47 nM
Glucocorticoid receptor
  IC50: 6900 nM

## COc1cc(NC(=O)c2ccc(-c3ccccc3C(F)(F)F)c(COC(C)=O)c2)ccc1S(N)(=O)=O
[4]
  IC50: 31 nM

## CC(C)C[C@H](NC(=O)[C@H](CO)NC(=O)[C@H](CCCCN)NC(=O)[C@H](CCC(N)=O)NC(=O)[C@H](CCC(N)=O)NC(=O)[C@H](C)N)C(=O)N[C@@H](CC(C)C)C(=O)N[C@@H](CCC(N)=O)C(=O)N[C@@H](CCC(N)=O)C(=O)N[C@@H](CC(C)C)C(=O)N[C@@H](CC(C)C)C(=O)N[C@H](C(=O)N[C@@H](CCC(=O)O)C(=O)O)[C@@H](C)O
[1]
  IC50: 900 nM

## H-QEKHRILHKLLQNGN-OH
[1]
  IC50: 4600 nM

## Cc1cc(NS(C)(=O)=O)cc2c1C(c1ccc(F)cc1)=NC(C)(C)O2
[2]
  IC50: < 500 nM

## COc1cc(NC(=O)c2ccc(-c3ccccc3OC(F)(F)F)c(CCN3CC(C)OC(C)C3)c2)ccc1S(N)(=O)=O (centres undefined)
[4]
  IC50: 61 nM

## CC1=C(c2ccc(F)cc2)c2ccc(NS(C)(=O)=O)cc2OC1(C)C
[2]
  IC50: < 500 nM

## Cc1cc(Cl)ccc1C1=CC(C)(C)Oc2cc(NS(C)(=O)=O)ccc21
[2]
  IC50: < 500 nM
